Measured values reported in paper PMC5761851, “Application of a phenotypic drug discovery strategy to identify biological and chemical starting points for inhibition of TSLP production in lung epithelial cells” (PLoS ONE, 2018).
Values joined by “and” are separate entries in the source; they are usually repeats but may differ in a detail not shown here. Equal entries are not always repeated. Where two headings read alike, the source gives them in different places.

Assays:
PDE6 = PDE6 (Bos taurus, UniProt P11541+P23439); assay: BioPrint panel: PDE6; type: biochemical
Experimental: General selectivity profiling was performed at Eurofins Pharma Discovery Services using the BioPrint® panel and reference database. The panel included 104 binding assays (non-peptide, peptide and nuclear receptors, ion channels and amine transporters) and 41 cell based and enzyme assays (including 10 kinases, 9 proteases and 5 phosphodiesterases) (S4 Table). More than 70% were human targets. Compound 4 was tested at a concentration of 1 μM in duplicate (10 μM for P-gp and CYP enzymes). The resulting bioactivity fingerprint was compared with a database of >2,500 BioPrint marketed drugs and reference compounds. IC50 values for selected activities were further characterized at 8 concentrations in duplicate.

FLT-1 kinase (VEGFR1) = molecular target: T1, FLT-1 kinase (VEGFR1) (Homo sapiens, UniProt P17948); assay: BioPrint panel: FLT-1 kinase (h) (VEGFR1); type: biochemical; conditions: 1 micromolar, read-out: percentage of inhibition of activity
T1 construct: purchased Eurofins Pharma Discovery Services (KinaseProfiler; Cerep BioPrint panel)
Source text: (§1) Supplement pone.0189247.s004.xlsx, sheet "Bioprint Selectivity Panel" | column: %

PDE3B = molecular target: T2, PDE3B (Homo sapiens, UniProt Q13370); assay: BioPrint panel: PDE3B (h); type: biochemical; conditions: 1 micromolar, read-out: percentage of inhibition of activity
T2 construct: purchased Eurofins Pharma Discovery Services (KinaseProfiler; Cerep BioPrint panel)
Source text: as §1

GABA transporter = assay: BioPrint panel: GABA transporter (antagonist); type: binding; conditions: 1 micromolar
Source text: as §1

CCK2 (CCKB) = molecular target: T3, CCK2 (CCKB) (Homo sapiens, UniProt P32239); assay: BioPrint panel: CCK2 (CCKB) (h) (agonist); type: binding; conditions: 1 micromolar, read-out: percentage of inhibition of activity
T3 construct: purchased Eurofins Pharma Discovery Services (KinaseProfiler; Cerep BioPrint panel)
Source text: as §1

Guanylyl cylcase = assay: BioPrint panel: Guanylyl cylcase (activator); type: biochemical; conditions: 1 micromolar
Source text: as §1

NK2 = molecular target: T4, NK2 (Homo sapiens, UniProt P21452); assay: BioPrint panel: NK2 (h) (agonist); type: binding; conditions: 1 micromolar, read-out: percentage of inhibition of activity
T4 construct: purchased Eurofins Pharma Discovery Services (KinaseProfiler; Cerep BioPrint panel)
Source text: as §1

MC4 = molecular target: T5, MC4 (Homo sapiens, UniProt P32245); assay: BioPrint panel: MC4 (h) (agonist); type: binding; conditions: 1 micromolar, read-out: percentage of inhibition of activity
T5 construct: purchased Eurofins Pharma Discovery Services (KinaseProfiler; Cerep BioPrint panel)
Source text: as §1

BACE-1 (beta -secretase) = molecular target: T6, BACE-1 (beta -secretase) (Homo sapiens, UniProt P56817); assay: BioPrint panel: BACE-1 (h) (beta -secretase); type: biochemical; conditions: 1 micromolar, read-out: percentage of inhibition of activity
T6 construct: purchased Eurofins Pharma Discovery Services (KinaseProfiler; Cerep BioPrint panel)
Source text: as §1

H1 = molecular target: T7, H1 (Homo sapiens, UniProt P35367); assay: BioPrint panel: H1 (h) (antagonist); type: binding; conditions: 1 micromolar, read-out: percentage of inhibition of activity
T7 construct: purchased Eurofins Pharma Discovery Services (KinaseProfiler; Cerep BioPrint panel)
Source text: as §1

[1] = molecular target: T8, choline transporter (CHT1) (Homo sapiens, UniProt Q9GZV3); assay: BioPrint panel: choline transporter (CHT1) (h) (antagonist); type: binding; conditions: 1 micromolar, read-out: percentage of inhibition of activity
T8 construct: purchased Eurofins Pharma Discovery Services (KinaseProfiler; Cerep BioPrint panel)
Source text: as §1

UT = molecular target: T9, UT (Homo sapiens, UniProt Q9UKP6); assay: BioPrint panel: UT (h) (agonist); type: binding; conditions: 1 micromolar, read-out: percentage of inhibition of activity
T9 construct: purchased Eurofins Pharma Discovery Services (KinaseProfiler; Cerep BioPrint panel)
Source text: as §1

AT1 = molecular target: T10, AT1 (Homo sapiens, UniProt P30556); assay: BioPrint panel: AT1 (h) (antagonist); type: binding; conditions: 1 micromolar, read-out: percentage of inhibition of activity
T10 construct: purchased Eurofins Pharma Discovery Services (KinaseProfiler; Cerep BioPrint panel)
Source text: as §1

VPAC1 (VIP1) = molecular target: T11, VPAC1 (VIP1) (Homo sapiens, UniProt P32241); assay: BioPrint panel: VPAC1 (VIP1) (h) (agonist); type: binding; conditions: 1 micromolar, read-out: percentage of inhibition of activity
T11 construct: purchased Eurofins Pharma Discovery Services (KinaseProfiler; Cerep BioPrint panel)
Source text: as §1

[2] = test system: COMT (catechol- O-methyl transferase); assay: BioPrint panel: COMT (catechol- O-methyl transferase); type: biochemical; conditions: 1 micromolar
Source text: as §1

MMP-9 = molecular target: T12, MMP-9 (Homo sapiens, UniProt P14780); assay: BioPrint panel: MMP-9 (h); type: biochemical; conditions: 1 micromolar, read-out: percentage of inhibition of activity
T12 construct: purchased Eurofins Pharma Discovery Services (KinaseProfiler; Cerep BioPrint panel)
Source text: as §1

ATPase (Na+/K+) = assay: BioPrint panel: ATPase (Na+/K+); type: biochemical; conditions: 1 micromolar
Source text: as §1

Y1 = molecular target: T13, Y1 (Homo sapiens, UniProt P25929); assay: BioPrint panel: Y1 (h) (agonist); type: binding; conditions: 1 micromolar, read-out: percentage of inhibition of activity
T13 construct: purchased Eurofins Pharma Discovery Services (KinaseProfiler; Cerep BioPrint panel)
Source text: as §1

acetylcholinesterase = molecular target: T14, acetylcholinesterase (Homo sapiens, UniProt P22303); assay: BioPrint panel: acetylcholinesterase (h); type: biochemical; conditions: 1 micromolar, read-out: percentage of inhibition of activity
T14 construct: purchased Eurofins Pharma Discovery Services (KinaseProfiler; Cerep BioPrint panel)
Source text: as §1

[3] = molecular target: T15, xanthine oxidase/ superoxide O2- scavenging (Bos taurus, UniProt P80457); assay: BioPrint panel: xanthine oxidase/ superoxide O2- scavenging; type: biochemical; conditions: 1 micromolar, read-out: percentage of inhibition of activity
T15 construct: purchased Eurofins Pharma Discovery Services (KinaseProfiler; Cerep BioPrint panel)
Source text: as §1

D2S = molecular target: T16, D2S (Homo sapiens, UniProt P14416); assay: BioPrint panel: D2S (h) (agonist); type: binding; conditions: 1 micromolar, read-out: percentage of inhibition of activity
T16 construct: purchased Eurofins Pharma Discovery Services (KinaseProfiler; Cerep BioPrint panel)
Source text: as §1

neutral endopeptidase = molecular target: T17, neutral endopeptidase (Homo sapiens, UniProt P08473); assay: BioPrint panel: neutral endopeptidase (h); type: biochemical; conditions: 1 micromolar, read-out: percentage of inhibition of activity
T17 construct: purchased Eurofins Pharma Discovery Services (KinaseProfiler; Cerep BioPrint panel)
Source text: as §1

glucagon = molecular target: T18, glucagon (Homo sapiens, UniProt P47871); assay: BioPrint panel: glucagon (h) (agonist); type: binding; conditions: 1 micromolar, read-out: percentage of inhibition of activity
T18 construct: purchased Eurofins Pharma Discovery Services (KinaseProfiler; Cerep BioPrint panel)
Source text: as §1

NOP (ORL1) = molecular target: T19, NOP (ORL1) (Homo sapiens, UniProt P41146); assay: BioPrint panel: NOP (ORL1) (h) (agonist); type: binding; conditions: 1 micromolar, read-out: percentage of inhibition of activity
T19 construct: purchased Eurofins Pharma Discovery Services (KinaseProfiler; Cerep BioPrint panel)
Source text: as §1

M3 = molecular target: T20, M3 (Homo sapiens, UniProt P20309); assay: BioPrint panel: M3 (h) (antagonist); type: binding; conditions: 1 micromolar, read-out: percentage of inhibition of activity
T20 construct: purchased Eurofins Pharma Discovery Services (KinaseProfiler; Cerep BioPrint panel)
Source text: as §1

PPARgamma = molecular target: T21, PPARgamma (Homo sapiens, UniProt P37231); assay: BioPrint panel: PPARgamma (h) (agonist); type: binding; conditions: 1 micromolar, read-out: percentage of inhibition of activity
T21 construct: purchased Eurofins Pharma Discovery Services (KinaseProfiler; Cerep BioPrint panel)
Source text: as §1

V1a = molecular target: T22, V1a (Homo sapiens, UniProt P37288); assay: BioPrint panel: V1a (h) (agonist); type: binding; conditions: 1 micromolar, read-out: percentage of inhibition of activity
T22 construct: purchased Eurofins Pharma Discovery Services (KinaseProfiler; Cerep BioPrint panel)
Source text: as §1

[4] = test system: Ca2+ channel (L, dihydropyridine site); assay: BioPrint panel: Ca2+ channel (L, dihydropyridine site) (antagonist); type: binding; conditions: 1 micromolar
Source text: as §1

Ca2+ channel (N) = molecular target: T23, Ca2+ channel (N) (Rattus norvegicus, UniProt Q02294); assay: BioPrint panel: Ca2+ channel (N) (antagonist); type: binding; conditions: 1 micromolar, read-out: percentage of inhibition of activity
T23 construct: purchased Eurofins Pharma Discovery Services (KinaseProfiler; Cerep BioPrint panel)
Source text: as §1

ETA = molecular target: T24, ETA (Homo sapiens, UniProt P25101); assay: BioPrint panel: ETA (h) (agonist); type: binding; conditions: 1 micromolar, read-out: percentage of inhibition of activity
T24 construct: purchased Eurofins Pharma Discovery Services (KinaseProfiler; Cerep BioPrint panel)
Source text: as §1

p38α = p38α (Homo sapiens, UniProt Q16539); assay: enzymatic p38 activity; type: biochemical
Sequence of p38α (Q16539 whole entry): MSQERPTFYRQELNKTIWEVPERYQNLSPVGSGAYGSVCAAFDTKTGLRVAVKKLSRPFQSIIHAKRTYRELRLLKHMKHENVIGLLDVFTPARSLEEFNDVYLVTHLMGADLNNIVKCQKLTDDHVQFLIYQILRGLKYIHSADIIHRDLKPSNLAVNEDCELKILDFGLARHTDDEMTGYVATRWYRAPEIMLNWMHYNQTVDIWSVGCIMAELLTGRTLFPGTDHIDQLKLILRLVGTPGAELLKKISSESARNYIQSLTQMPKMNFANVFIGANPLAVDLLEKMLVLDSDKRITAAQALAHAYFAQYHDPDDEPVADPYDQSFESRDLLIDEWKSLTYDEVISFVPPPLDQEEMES

Sequence of PDE6 (P11541 2-856): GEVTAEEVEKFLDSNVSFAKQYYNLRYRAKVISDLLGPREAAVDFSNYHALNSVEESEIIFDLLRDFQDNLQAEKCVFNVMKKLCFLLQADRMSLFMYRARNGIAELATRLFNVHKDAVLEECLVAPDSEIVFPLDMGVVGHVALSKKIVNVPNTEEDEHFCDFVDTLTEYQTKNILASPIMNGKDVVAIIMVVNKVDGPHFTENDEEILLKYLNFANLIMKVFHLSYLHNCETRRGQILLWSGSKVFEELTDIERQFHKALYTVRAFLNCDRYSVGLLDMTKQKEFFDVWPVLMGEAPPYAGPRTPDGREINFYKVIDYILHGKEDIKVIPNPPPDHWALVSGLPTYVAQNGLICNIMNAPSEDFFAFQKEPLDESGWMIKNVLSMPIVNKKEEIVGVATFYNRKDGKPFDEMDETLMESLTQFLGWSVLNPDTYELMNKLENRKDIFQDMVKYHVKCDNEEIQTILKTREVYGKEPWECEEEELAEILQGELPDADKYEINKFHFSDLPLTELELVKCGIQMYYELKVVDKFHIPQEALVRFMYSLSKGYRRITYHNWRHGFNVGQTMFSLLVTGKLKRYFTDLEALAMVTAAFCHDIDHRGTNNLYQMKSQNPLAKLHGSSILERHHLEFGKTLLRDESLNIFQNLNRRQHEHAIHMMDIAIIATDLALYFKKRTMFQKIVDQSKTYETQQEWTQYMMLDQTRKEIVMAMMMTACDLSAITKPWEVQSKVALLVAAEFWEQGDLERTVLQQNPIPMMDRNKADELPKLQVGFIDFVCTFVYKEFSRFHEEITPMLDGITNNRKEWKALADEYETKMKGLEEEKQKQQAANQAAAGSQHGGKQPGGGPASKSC
Sequence of PDE6 (P23439 2-850): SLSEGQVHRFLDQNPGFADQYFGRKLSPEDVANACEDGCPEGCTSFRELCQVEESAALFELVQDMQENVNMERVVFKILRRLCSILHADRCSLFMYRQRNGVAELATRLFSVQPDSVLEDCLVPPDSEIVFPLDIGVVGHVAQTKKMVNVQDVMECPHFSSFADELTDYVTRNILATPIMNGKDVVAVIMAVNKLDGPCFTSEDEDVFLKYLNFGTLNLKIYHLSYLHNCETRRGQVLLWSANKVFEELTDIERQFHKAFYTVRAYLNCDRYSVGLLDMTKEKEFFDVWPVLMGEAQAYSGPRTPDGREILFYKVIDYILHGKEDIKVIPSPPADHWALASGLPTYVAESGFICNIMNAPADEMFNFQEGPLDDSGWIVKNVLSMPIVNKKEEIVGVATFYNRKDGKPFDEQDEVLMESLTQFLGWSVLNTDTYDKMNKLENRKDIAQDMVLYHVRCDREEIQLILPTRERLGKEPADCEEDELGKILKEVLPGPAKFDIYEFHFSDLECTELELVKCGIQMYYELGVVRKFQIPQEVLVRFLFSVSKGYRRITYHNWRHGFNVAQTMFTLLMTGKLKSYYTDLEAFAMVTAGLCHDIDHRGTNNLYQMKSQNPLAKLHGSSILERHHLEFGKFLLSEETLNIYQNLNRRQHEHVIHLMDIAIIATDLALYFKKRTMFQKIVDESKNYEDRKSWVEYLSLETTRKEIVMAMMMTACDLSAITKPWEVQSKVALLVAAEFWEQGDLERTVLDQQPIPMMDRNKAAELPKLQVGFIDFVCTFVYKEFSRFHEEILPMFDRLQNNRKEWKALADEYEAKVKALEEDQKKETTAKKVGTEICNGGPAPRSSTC
Sequence of PDE6 (P04972 whole entry partner): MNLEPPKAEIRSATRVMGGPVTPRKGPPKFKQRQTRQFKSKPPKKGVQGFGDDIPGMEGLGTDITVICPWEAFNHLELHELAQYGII
T2 sequence (Q13370 whole entry): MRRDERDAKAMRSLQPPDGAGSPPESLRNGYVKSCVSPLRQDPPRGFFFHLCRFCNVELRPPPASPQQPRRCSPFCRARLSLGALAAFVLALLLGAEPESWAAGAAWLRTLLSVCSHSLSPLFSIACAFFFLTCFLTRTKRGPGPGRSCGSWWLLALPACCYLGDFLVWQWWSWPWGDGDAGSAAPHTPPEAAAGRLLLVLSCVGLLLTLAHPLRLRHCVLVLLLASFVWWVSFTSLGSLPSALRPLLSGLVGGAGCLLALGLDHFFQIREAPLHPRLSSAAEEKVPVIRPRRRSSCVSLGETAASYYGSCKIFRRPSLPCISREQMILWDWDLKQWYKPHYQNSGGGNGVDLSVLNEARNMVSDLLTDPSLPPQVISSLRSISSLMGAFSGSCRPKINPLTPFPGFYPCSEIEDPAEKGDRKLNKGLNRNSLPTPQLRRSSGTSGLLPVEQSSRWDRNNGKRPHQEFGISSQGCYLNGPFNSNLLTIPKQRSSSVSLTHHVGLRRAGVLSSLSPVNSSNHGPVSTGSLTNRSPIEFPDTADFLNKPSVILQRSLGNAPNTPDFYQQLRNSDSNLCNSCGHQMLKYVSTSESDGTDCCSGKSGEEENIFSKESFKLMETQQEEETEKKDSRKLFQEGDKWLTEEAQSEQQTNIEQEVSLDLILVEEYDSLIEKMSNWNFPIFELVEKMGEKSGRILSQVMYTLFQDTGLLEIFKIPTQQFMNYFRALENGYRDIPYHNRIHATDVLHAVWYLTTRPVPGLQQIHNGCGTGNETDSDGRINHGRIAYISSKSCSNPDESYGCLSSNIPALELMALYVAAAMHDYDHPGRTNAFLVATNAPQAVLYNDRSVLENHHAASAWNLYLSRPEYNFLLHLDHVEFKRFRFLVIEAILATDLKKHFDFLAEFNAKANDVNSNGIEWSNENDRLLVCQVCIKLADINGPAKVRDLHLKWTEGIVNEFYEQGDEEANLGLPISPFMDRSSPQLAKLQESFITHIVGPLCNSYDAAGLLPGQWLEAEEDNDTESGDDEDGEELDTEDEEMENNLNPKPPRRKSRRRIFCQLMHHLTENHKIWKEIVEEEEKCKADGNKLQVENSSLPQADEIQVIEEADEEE
T14 sequence (P22303 32-614): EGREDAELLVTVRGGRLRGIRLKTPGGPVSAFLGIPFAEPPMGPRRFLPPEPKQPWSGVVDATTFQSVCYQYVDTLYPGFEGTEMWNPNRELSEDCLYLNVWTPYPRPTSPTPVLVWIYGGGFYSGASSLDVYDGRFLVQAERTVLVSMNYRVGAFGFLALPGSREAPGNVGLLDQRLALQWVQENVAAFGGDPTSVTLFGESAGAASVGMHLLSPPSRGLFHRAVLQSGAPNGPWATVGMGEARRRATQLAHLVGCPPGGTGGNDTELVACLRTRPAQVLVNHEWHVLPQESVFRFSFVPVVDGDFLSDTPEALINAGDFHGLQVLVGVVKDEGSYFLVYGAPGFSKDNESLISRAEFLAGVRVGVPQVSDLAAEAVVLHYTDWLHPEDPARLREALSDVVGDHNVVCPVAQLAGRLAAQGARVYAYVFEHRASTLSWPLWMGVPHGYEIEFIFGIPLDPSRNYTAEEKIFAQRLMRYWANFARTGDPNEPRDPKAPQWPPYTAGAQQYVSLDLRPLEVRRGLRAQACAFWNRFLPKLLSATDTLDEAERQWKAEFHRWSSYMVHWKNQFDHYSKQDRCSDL
T21 sequence (P37231 whole entry): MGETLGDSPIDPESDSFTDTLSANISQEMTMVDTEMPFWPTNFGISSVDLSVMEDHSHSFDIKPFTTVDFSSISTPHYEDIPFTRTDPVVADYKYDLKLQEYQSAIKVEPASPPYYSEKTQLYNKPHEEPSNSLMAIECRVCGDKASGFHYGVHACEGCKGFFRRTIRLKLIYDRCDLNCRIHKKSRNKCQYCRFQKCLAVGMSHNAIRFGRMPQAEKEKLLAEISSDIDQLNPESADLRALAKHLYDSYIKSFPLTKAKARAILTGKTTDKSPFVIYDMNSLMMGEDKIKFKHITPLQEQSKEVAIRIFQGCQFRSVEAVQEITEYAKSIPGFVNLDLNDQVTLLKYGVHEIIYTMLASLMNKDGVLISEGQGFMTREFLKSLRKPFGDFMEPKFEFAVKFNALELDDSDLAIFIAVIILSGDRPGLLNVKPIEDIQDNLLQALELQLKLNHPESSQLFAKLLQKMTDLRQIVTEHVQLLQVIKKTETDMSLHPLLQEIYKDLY
T16 sequence (P14416 1-414 isoform P14416-2): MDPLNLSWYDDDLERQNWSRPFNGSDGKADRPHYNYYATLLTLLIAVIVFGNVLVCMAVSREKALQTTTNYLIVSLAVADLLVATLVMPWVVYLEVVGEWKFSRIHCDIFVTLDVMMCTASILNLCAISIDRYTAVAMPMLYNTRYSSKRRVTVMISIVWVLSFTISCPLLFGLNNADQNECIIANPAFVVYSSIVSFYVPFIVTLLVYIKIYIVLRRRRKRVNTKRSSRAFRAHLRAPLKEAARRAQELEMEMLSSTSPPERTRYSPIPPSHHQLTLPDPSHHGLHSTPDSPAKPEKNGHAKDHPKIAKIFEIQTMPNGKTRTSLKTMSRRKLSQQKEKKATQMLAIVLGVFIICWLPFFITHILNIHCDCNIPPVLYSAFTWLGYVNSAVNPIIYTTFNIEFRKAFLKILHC

`Cn1cc(-c2cccc(-c3nc(C(=O)NC4C5CC6CC4CC(O)(C6)C5)c(N)nc3N)c2)cn1` (stereo not drawn) [compound 4] gave an inhibition at 1 µM (PDE6; 1 μM, read-out: inhibition of PDE6) of 55%, an inhibition at 1 µM (PDE6; 1 micromolar, PDE6 (non-selective), read-out: percentage of inhibition of activity) of 55.6% and an inhibition at 1 µM (FLT-1 kinase (VEGFR1)) of -4.8%. For the same compound, the inhibition at 1 µM (PDE3B) was 5.8%, the “percentage of inhibition of activity” value (GABA transporter) was 1.1% and the inhibition at 1 µM (CCK2 (CCKB)) was -3.4%. For the same compound, the “percentage of inhibition of activity” value (Guanylyl cylcase) was 0%, the inhibition at 1 µM (NK2) was -1.8% and the inhibition at 1 µM (MC4) was -5.1%. It also gave an inhibition at 1 µM (BACE-1 (beta -secretase)) of -7.3%, an inhibition at 1 µM (H1) of -0.5% and an inhibition at 1 µM [1] of 3%. It also gave an inhibition at 1 µM (UT) of 7.4%, an inhibition at 1 µM (AT1) of -6.4% and an inhibition at 1 µM (VPAC1 (VIP1)) of -4.6%. For the same compound, the “percentage of inhibition of activity” value [2] was “INTER”, the inhibition at 1 µM (MMP-9) was -4.4% and the “percentage of inhibition of activity” value (ATPase (Na+/K+)) was 0%. The inhibition at 1 µM (Y1) was -9.2%, the inhibition at 1 µM (acetylcholinesterase) was 6.2% and the inhibition at 1 µM [3] was -15.3%. The inhibition at 1 µM (D2S) was -1.5%, the inhibition at 1 µM (neutral endopeptidase) was 15.6% and the inhibition at 1 µM (glucagon) was -8.3%. For the same compound, the inhibition at 1 µM (NOP (ORL1)) was 12.3%, the inhibition at 1 µM (M3) was -0.3% and the inhibition at 1 µM (PPARgamma) was 3.2%. The inhibition at 1 µM (V1a) was -9.3%, the “percentage of inhibition of activity” value [4] was -3.5% and the inhibition at 1 µM (Ca2+ channel (N)) was -2.7%. It also gave an inhibition at 1 µM (ETA) of -12.5%.
With `COc1c(NC(=O)c2ccc(C)c(-c3nnc4c(NCC(C)(C)C)nccn34)c2)cc(C(C)(C)C)cc1NS(C)(=O)=O` [compound 7, reference compound] the IC50 (p38α; geometric mean, read-out: Activity in reference biochemical assay (IC50, μM) (95% CI) p38α) was 0.003 µM and the IC50 (p38α; individual values, read-out: Biochemical activity (IC50, mM) (p38a)) was 0.008 µM and 0.005 µM and 0.001 µM.
